Laboratory results published in PubChem BioAssay (NCI).
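Cultured in 96-well plates, cells were exposed to test compound for 48 hours across five concentrations. The concentration for full growth arrest is given as TGI.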

These molecules were tested on NCI-H226 lung (assay: growth of human tumour cells (NCI), 48 h).

SMILES	TGI
O=c1c2nc3ccccc3c(=O)n2ncn1-c1ccccc1Cl	> 100 µM
CC(=O)OCC1OC(OC2CC3C(C)(C)C(OC(C)=O)CC[C@]3(C)C3CCC45CC4(CCC5[C@@H](C)C[C@H](O)C(O)C(C)(C)O)[C@]23C)C(O)C(O)C1O (stereo partly specified)	> 10 µM

The molecules below were run on NCI-H23 lung (assay: growth of human tumour cells (NCI), 48 h).

SMILES	TGI
Cc1nn(-c2ccccc2)c(C)c1/C=N/N=C1\SCC(=O)N1c1ccccc1	86.4 µM
OCC(O)C(Cl)CCl (stereo unspecified)	> 100 µM
O=C1NCc2ccccc2S(=O)(=O)n2cccc21	> 100 µM
O=C(/C=C/c1ccccc1)NNC(=O)c1c(Cl)c(Cl)c(Cl)c(Cl)c1-c1nc2ccccc2[nH]1	60 µM
Fc1ccc(C(OCCN2CCC3CCC(C2)N3C/C=C/c2ccco2)c2ccc(F)cc2)cc1 (stereo unspecified)	24 µM
O=c1c2nc3ccccc3c(=O)n2ncn1-c1ccccc1Cl	> 100 µM
CC(=O)OCC1OC(OC2CC3C(C)(C)C(OC(C)=O)CC[C@]3(C)C3CCC45CC4(CCC5[C@@H](C)C[C@H](O)C(O)C(C)(C)O)[C@]23C)C(O)C(O)C1O (stereo partly specified)	> 10 µM

What follows are molecules tested on NCI-H460 lung (assay: growth of human tumour cells (NCI), 48 h).

SMILES	TGI
Cc1nn(-c2ccccc2)c(C)c1/C=N/N=C1\SCC(=O)N1c1ccccc1	60.2 µM
OCC(O)C(Cl)CCl (stereo unspecified)	> 100 µM
O=C1NCc2ccccc2S(=O)(=O)n2cccc21	> 100 µM
O=C(/C=C/c1ccccc1)NNC(=O)c1c(Cl)c(Cl)c(Cl)c(Cl)c1-c1nc2ccccc2[nH]1	61 µM
Fc1ccc(C(OCCN2CCC3CCC(C2)N3C/C=C/c2ccco2)c2ccc(F)cc2)cc1 (stereo unspecified)	24.5 µM
O=c1c2nc3ccccc3c(=O)n2ncn1-c1ccccc1Cl	> 100 µM
CC(=O)OCC1OC(OC2CC3C(C)(C)C(OC(C)=O)CC[C@]3(C)C3CCC45CC4(CCC5[C@@H](C)C[C@H](O)C(O)C(C)(C)O)[C@]23C)C(O)C(O)C1O (stereo partly specified)	> 10 µM

What follows are molecules tested on NCI-H522 lung (assay: growth of human tumour cells (NCI), 48 h).

SMILES	TGI
OCC(O)C(Cl)CCl (stereo unspecified)	> 100 µM
O=C1NCc2ccccc2S(=O)(=O)n2cccc21	> 100 µM
O=C(/C=C/c1ccccc1)NNC(=O)c1c(Cl)c(Cl)c(Cl)c(Cl)c1-c1nc2ccccc2[nH]1	63.4 µM
Fc1ccc(C(OCCN2CCC3CCC(C2)N3C/C=C/c2ccco2)c2ccc(F)cc2)cc1 (stereo unspecified)	20.5 µM
O=c1c2nc3ccccc3c(=O)n2ncn1-c1ccccc1Cl	> 100 µM
CC(=O)OCC1OC(OC2CC3C(C)(C)C(OC(C)=O)CC[C@]3(C)C3CCC45CC4(CCC5[C@@H](C)C[C@H](O)C(O)C(C)(C)O)[C@]23C)C(O)C(O)C1O (stereo partly specified)	> 10 µM

The molecules below were run on NCI/ADR-RES ovarian (assay: growth of human tumour cells (NCI), 48 h).

SMILES	TGI
Cc1nn(-c2ccccc2)c(C)c1/C=N/N=C1\SCC(=O)N1c1ccccc1	54.4 µM
OCC(O)C(Cl)CCl (stereo unspecified)	> 100 µM
O=C1NCc2ccccc2S(=O)(=O)n2cccc21	> 100 µM
O=C(/C=C/c1ccccc1)NNC(=O)c1c(Cl)c(Cl)c(Cl)c(Cl)c1-c1nc2ccccc2[nH]1	64.9 µM
Fc1ccc(C(OCCN2CCC3CCC(C2)N3C/C=C/c2ccco2)c2ccc(F)cc2)cc1 (stereo unspecified)	22.4 µM
CC(=O)OCC1OC(OC2CC3C(C)(C)C(OC(C)=O)CC[C@]3(C)C3CCC45CC4(CCC5[C@@H](C)C[C@H](O)C(O)C(C)(C)O)[C@]23C)C(O)C(O)C1O (stereo partly specified)	> 10 µM

Each molecule was assayed on OVCAR-3 ovarian (assay: growth of human tumour cells (NCI), 48 h).

SMILES	TGI
Cc1nn(-c2ccccc2)c(C)c1/C=N/N=C1\SCC(=O)N1c1ccccc1	78.3 µM
OCC(O)C(Cl)CCl (stereo unspecified)	> 100 µM
O=C1NCc2ccccc2S(=O)(=O)n2cccc21	> 100 µM
O=C(/C=C/c1ccccc1)NNC(=O)c1c(Cl)c(Cl)c(Cl)c(Cl)c1-c1nc2ccccc2[nH]1	> 100 µM
Fc1ccc(C(OCCN2CCC3CCC(C2)N3C/C=C/c2ccco2)c2ccc(F)cc2)cc1 (stereo unspecified)	27.5 µM
O=c1c2nc3ccccc3c(=O)n2ncn1-c1ccccc1Cl	> 100 µM
CC(=O)OCC1OC(OC2CC3C(C)(C)C(OC(C)=O)CC[C@]3(C)C3CCC45CC4(CCC5[C@@H](C)C[C@H](O)C(O)C(C)(C)O)[C@]23C)C(O)C(O)C1O (stereo partly specified)	> 10 µM

What follows are molecules tested on OVCAR-4 ovarian (assay: growth of human tumour cells (NCI), 48 h).

SMILES	TGI
Cc1nn(-c2ccccc2)c(C)c1/C=N/N=C1\SCC(=O)N1c1ccccc1	41.7 µM
OCC(O)C(Cl)CCl (stereo unspecified)	> 100 µM
O=C1NCc2ccccc2S(=O)(=O)n2cccc21	> 100 µM
O=C(/C=C/c1ccccc1)NNC(=O)c1c(Cl)c(Cl)c(Cl)c(Cl)c1-c1nc2ccccc2[nH]1	> 100 µM
Fc1ccc(C(OCCN2CCC3CCC(C2)N3C/C=C/c2ccco2)c2ccc(F)cc2)cc1 (stereo unspecified)	25.2 µM
O=c1c2nc3ccccc3c(=O)n2ncn1-c1ccccc1Cl	> 100 µM
CC(=O)OCC1OC(OC2CC3C(C)(C)C(OC(C)=O)CC[C@]3(C)C3CCC45CC4(CCC5[C@@H](C)C[C@H](O)C(O)C(C)(C)O)[C@]23C)C(O)C(O)C1O (stereo partly specified)	> 10 µM

The molecules below were run on OVCAR-5 ovarian (assay: growth of human tumour cells (NCI), 48 h).

SMILES	TGI
Cc1nn(-c2ccccc2)c(C)c1/C=N/N=C1\SCC(=O)N1c1ccccc1	> 100 µM
OCC(O)C(Cl)CCl (stereo unspecified)	> 100 µM
O=C1NCc2ccccc2S(=O)(=O)n2cccc21	> 100 µM
O=C(/C=C/c1ccccc1)NNC(=O)c1c(Cl)c(Cl)c(Cl)c(Cl)c1-c1nc2ccccc2[nH]1	> 100 µM
O=c1c2nc3ccccc3c(=O)n2ncn1-c1ccccc1Cl	> 100 µM
CC(=O)OCC1OC(OC2CC3C(C)(C)C(OC(C)=O)CC[C@]3(C)C3CCC45CC4(CCC5[C@@H](C)C[C@H](O)C(O)C(C)(C)O)[C@]23C)C(O)C(O)C1O (stereo partly specified)	> 10 µM

These molecules were tested on OVCAR-8 ovarian (assay: growth of human tumour cells (NCI), 48 h).

SMILES	TGI
Cc1nn(-c2ccccc2)c(C)c1/C=N/N=C1\SCC(=O)N1c1ccccc1	55.1 µM
OCC(O)C(Cl)CCl (stereo unspecified)	> 100 µM
O=C1NCc2ccccc2S(=O)(=O)n2cccc21	> 100 µM
O=C(/C=C/c1ccccc1)NNC(=O)c1c(Cl)c(Cl)c(Cl)c(Cl)c1-c1nc2ccccc2[nH]1	> 100 µM
Fc1ccc(C(OCCN2CCC3CCC(C2)N3C/C=C/c2ccco2)c2ccc(F)cc2)cc1 (stereo unspecified)	19.6 µM
O=c1c2nc3ccccc3c(=O)n2ncn1-c1ccccc1Cl	> 100 µM
CC(=O)OCC1OC(OC2CC3C(C)(C)C(OC(C)=O)CC[C@]3(C)C3CCC45CC4(CCC5[C@@H](C)C[C@H](O)C(O)C(C)(C)O)[C@]23C)C(O)C(O)C1O (stereo partly specified)	> 10 µM

These molecules were tested on PC-3 prostate (assay: growth of human tumour cells (NCI), 48 h).

SMILES	TGI
Cc1nn(-c2ccccc2)c(C)c1/C=N/N=C1\SCC(=O)N1c1ccccc1	51.5 µM
OCC(O)C(Cl)CCl (stereo unspecified)	> 100 µM
O=C1NCc2ccccc2S(=O)(=O)n2cccc21	> 100 µM
O=C(/C=C/c1ccccc1)NNC(=O)c1c(Cl)c(Cl)c(Cl)c(Cl)c1-c1nc2ccccc2[nH]1	> 100 µM
Fc1ccc(C(OCCN2CCC3CCC(C2)N3C/C=C/c2ccco2)c2ccc(F)cc2)cc1 (stereo unspecified)	20.6 µM
O=c1c2nc3ccccc3c(=O)n2ncn1-c1ccccc1Cl	> 100 µM
CC(=O)OCC1OC(OC2CC3C(C)(C)C(OC(C)=O)CC[C@]3(C)C3CCC45CC4(CCC5[C@@H](C)C[C@H](O)C(O)C(C)(C)O)[C@]23C)C(O)C(O)C1O (stereo partly specified)	> 10 µM

The molecules below were run on RPMI-8226 leukemia (assay: growth of human tumour cells (NCI), 48 h).

SMILES	TGI
Cc1nn(-c2ccccc2)c(C)c1/C=N/N=C1\SCC(=O)N1c1ccccc1	35.3 µM
O=C1NCc2ccccc2S(=O)(=O)n2cccc21	> 100 µM
O=C(/C=C/c1ccccc1)NNC(=O)c1c(Cl)c(Cl)c(Cl)c(Cl)c1-c1nc2ccccc2[nH]1	83.2 µM
Fc1ccc(C(OCCN2CCC3CCC(C2)N3C/C=C/c2ccco2)c2ccc(F)cc2)cc1 (stereo unspecified)	17.3 µM
O=c1c2nc3ccccc3c(=O)n2ncn1-c1ccccc1Cl	> 100 µM
CC(=O)OCC1OC(OC2CC3C(C)(C)C(OC(C)=O)CC[C@]3(C)C3CCC45CC4(CCC5[C@@H](C)C[C@H](O)C(O)C(C)(C)O)[C@]23C)C(O)C(O)C1O (stereo partly specified)	> 10 µM

The molecules below were run on RXF 393 renal (assay: growth of human tumour cells (NCI), 48 h).

SMILES	TGI
Cc1nn(-c2ccccc2)c(C)c1/C=N/N=C1\SCC(=O)N1c1ccccc1	42.7 µM
O=C(/C=C/c1ccccc1)NNC(=O)c1c(Cl)c(Cl)c(Cl)c(Cl)c1-c1nc2ccccc2[nH]1	47.3 µM
Fc1ccc(C(OCCN2CCC3CCC(C2)N3C/C=C/c2ccco2)c2ccc(F)cc2)cc1 (stereo unspecified)	15.7 µM
CC(=O)OCC1OC(OC2CC3C(C)(C)C(OC(C)=O)CC[C@]3(C)C3CCC45CC4(CCC5[C@@H](C)C[C@H](O)C(O)C(C)(C)O)[C@]23C)C(O)C(O)C1O (stereo partly specified)	> 10 µM

These molecules were tested on SF-268 CNS (assay: growth of human tumour cells (NCI), 48 h).

SMILES	TGI
Cc1nn(-c2ccccc2)c(C)c1/C=N/N=C1\SCC(=O)N1c1ccccc1	> 100 µM
OCC(O)C(Cl)CCl (stereo unspecified)	> 100 µM
O=C1NCc2ccccc2S(=O)(=O)n2cccc21	> 100 µM
O=C(/C=C/c1ccccc1)NNC(=O)c1c(Cl)c(Cl)c(Cl)c(Cl)c1-c1nc2ccccc2[nH]1	> 100 µM
Fc1ccc(C(OCCN2CCC3CCC(C2)N3C/C=C/c2ccco2)c2ccc(F)cc2)cc1 (stereo unspecified)	25.9 µM
O=c1c2nc3ccccc3c(=O)n2ncn1-c1ccccc1Cl	> 100 µM
CC(=O)OCC1OC(OC2CC3C(C)(C)C(OC(C)=O)CC[C@]3(C)C3CCC45CC4(CCC5[C@@H](C)C[C@H](O)C(O)C(C)(C)O)[C@]23C)C(O)C(O)C1O (stereo partly specified)	> 10 µM

Each molecule was assayed on SF-295 CNS (assay: growth of human tumour cells (NCI), 48 h).

SMILES	TGI
Cc1nn(-c2ccccc2)c(C)c1/C=N/N=C1\SCC(=O)N1c1ccccc1	53.5 µM
OCC(O)C(Cl)CCl (stereo unspecified)	> 100 µM
O=C1NCc2ccccc2S(=O)(=O)n2cccc21	> 100 µM
O=C(/C=C/c1ccccc1)NNC(=O)c1c(Cl)c(Cl)c(Cl)c(Cl)c1-c1nc2ccccc2[nH]1	> 100 µM
Fc1ccc(C(OCCN2CCC3CCC(C2)N3C/C=C/c2ccco2)c2ccc(F)cc2)cc1 (stereo unspecified)	27.7 µM
O=c1c2nc3ccccc3c(=O)n2ncn1-c1ccccc1Cl	> 100 µM
CC(=O)OCC1OC(OC2CC3C(C)(C)C(OC(C)=O)CC[C@]3(C)C3CCC45CC4(CCC5[C@@H](C)C[C@H](O)C(O)C(C)(C)O)[C@]23C)C(O)C(O)C1O (stereo partly specified)	> 10 µM

The molecules below were run on SF-539 CNS (assay: growth of human tumour cells (NCI), 48 h).

SMILES	TGI
Cc1nn(-c2ccccc2)c(C)c1/C=N/N=C1\SCC(=O)N1c1ccccc1	67.2 µM
OCC(O)C(Cl)CCl (stereo unspecified)	> 100 µM
O=C1NCc2ccccc2S(=O)(=O)n2cccc21	> 100 µM
O=C(/C=C/c1ccccc1)NNC(=O)c1c(Cl)c(Cl)c(Cl)c(Cl)c1-c1nc2ccccc2[nH]1	> 100 µM
Fc1ccc(C(OCCN2CCC3CCC(C2)N3C/C=C/c2ccco2)c2ccc(F)cc2)cc1 (stereo unspecified)	28.4 µM
O=c1c2nc3ccccc3c(=O)n2ncn1-c1ccccc1Cl	> 100 µM
CC(=O)OCC1OC(OC2CC3C(C)(C)C(OC(C)=O)CC[C@]3(C)C3CCC45CC4(CCC5[C@@H](C)C[C@H](O)C(O)C(C)(C)O)[C@]23C)C(O)C(O)C1O (stereo partly specified)	> 10 µM

These molecules were tested on SK-MEL-2 melanoma (assay: growth of human tumour cells (NCI), 48 h).

SMILES	TGI
Cc1nn(-c2ccccc2)c(C)c1/C=N/N=C1\SCC(=O)N1c1ccccc1	58.4 µM
O=C1NCc2ccccc2S(=O)(=O)n2cccc21	> 100 µM
O=C(/C=C/c1ccccc1)NNC(=O)c1c(Cl)c(Cl)c(Cl)c(Cl)c1-c1nc2ccccc2[nH]1	80.8 µM
